The assay addresses Envelope glycoprotein gp160 (Human immunodeficiency virus 1, UniProt Q6QLK5). Description: cell-free HIV fusion peptide-binding blockers – biochemical, uHTS, fluorescence dequenching, […] (AID 1986).

We go through 1 compound from ChEMBL document CHEMBL1201862, “PubChem BioAssay data set” (2004).

Calls of active or inactive are those of the source. Cut-off read from the data, not from the text of the source: actives have a measured IC50 and inactives only a lower limit.

Chain of Envelope glycoprotein gp160 (Q6QLK5 whole entry, the tested form may be a part): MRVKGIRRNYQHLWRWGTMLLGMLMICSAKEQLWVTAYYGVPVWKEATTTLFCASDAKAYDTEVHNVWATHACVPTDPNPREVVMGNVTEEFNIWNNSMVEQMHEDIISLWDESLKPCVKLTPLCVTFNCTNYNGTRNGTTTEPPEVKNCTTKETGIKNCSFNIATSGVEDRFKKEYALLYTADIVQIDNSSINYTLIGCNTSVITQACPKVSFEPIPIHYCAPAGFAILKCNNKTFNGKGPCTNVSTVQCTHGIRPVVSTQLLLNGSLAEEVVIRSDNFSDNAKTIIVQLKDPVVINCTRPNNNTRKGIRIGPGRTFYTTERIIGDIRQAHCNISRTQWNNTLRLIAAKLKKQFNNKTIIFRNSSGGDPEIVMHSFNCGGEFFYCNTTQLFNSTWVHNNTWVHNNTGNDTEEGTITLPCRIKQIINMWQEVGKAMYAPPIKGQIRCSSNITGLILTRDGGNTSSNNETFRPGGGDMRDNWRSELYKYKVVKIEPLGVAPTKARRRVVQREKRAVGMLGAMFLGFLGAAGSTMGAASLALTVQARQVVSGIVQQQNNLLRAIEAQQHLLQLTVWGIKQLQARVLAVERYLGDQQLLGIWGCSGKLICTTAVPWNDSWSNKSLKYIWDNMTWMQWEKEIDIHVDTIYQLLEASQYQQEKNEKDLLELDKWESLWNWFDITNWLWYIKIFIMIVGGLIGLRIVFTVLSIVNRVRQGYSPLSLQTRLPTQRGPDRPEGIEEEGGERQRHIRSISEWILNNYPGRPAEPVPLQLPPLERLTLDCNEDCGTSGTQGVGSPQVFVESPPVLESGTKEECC

In general, IC50 refers to the concentration needed to halve the response being measured. As for `CCc1nnc(NS(=O)(=O)c2ccc(NC(=S)NC(=O)/C=C/c3cccs3)cc2)s1`, the IC50 is 22.6 µM (active).
